Experimental data reported in patent publication US5053431A, “Derivatives of chrysophanol as topoisomerase II inhibitors” (Sloan-Kettering Institute For Cancer Research, priority 1990, dated 1991).
In brackets after ≈: the same amount, converted by molar mass. Like-named read-outs stand apart in the source and are kept apart here.

Key:
[1] = test system: [^3 H]TdR incorporation into DNA in HL-60 cells; experiment: Inhibition of [3H]TdR incorporation into DNA in HL-60 cells (initial 30 min); assay type: cell-based, human; details: for IC50: HL-60, initial 30 min exposure, read-out: ID50, M (HL-60 TdR into DNA (B)); for B/A: ratio of ID50 for TdR incorporation (B) to ID50 for cell growth (A), HL-60
Protocol: For precursor incorporation studies, each compound at four to six concentrations (0.2% DMSO) was preincubated with HL-60 cells (2.5×10^6 /Ml) for 15 min prior to the addition of [^3 H-methyl]TdR (1 μCi, 0.15 nmol/mL) and was incubated for 30 min. […] The incorporation of radioactivity in DNA in the absence of an analogue in the presence of DMSO was used as a control.

[2] = test system: human leukemia HL-60 cells; experiment: HL-60 cell growth inhibition (72 h); assay type: cell-based; details: HL-60, 72 h, read-out: ID50, M [HL-60 cell growth (72 h)] (A)
Protocol: For cell growth inhibition studies, HL-60 cells […]) were grown in RPMI 1640 media at 37° C. in humidified 5% CO2 for 72 h. Viable cells were counted with the trypan blue exclusion method. The fractional inhibitions at four or five concentrations of compounds (in 0.2% DMSO) were analyzed with a median-effect plot (Chou, T.-C., et al., Adv. Enzyme Regul. 22:27 (1984)) by using a computer program. (Chou, J.; Chou, T.-C. Dose-Effect Analyses with Microcomputer. Quantitation of ID50, LD50, Synergism, Antagonism, Low-dose Risk, Receptor-Binding and Enzyme Kinetics; IBM-PC Series, Elsevier-Biosoft, Elsevier Scientific: Cambridge, U.K., (1986)). The median-effect concentration (ID50) was automatically determined for the x intercept of the median-effect plot. Cell growth in the absence of a compound and in the presence of DMSO was used as a control. DMSO (0.2%) alone inhibited cell growth 3.8±1.2% during the 72-h incubation period.

[3] = test system: mouse leukemia L1210 cells; experiment: Inhibition of L1210 cell growth; assay type: cell-based
Protocol: Preliminary biological data for inhibiting cell growth of murine L1210 leukemic cells and human acute promyelocytic leukemia cells (HL-60) during 72 h of exposure to the compounds are given in Table IV. The potencies for inhibiting [^3 H]TdR incorporation into DNA in HL-60 cells during the initial 30-min period are also given in Table IV. It is interesting to note that 1,8-di-O-methyl derivatives are uniformly devoid of activity against L1210 leukemic cells. […] The B/A ratios allow an indirect estimation of whether or not cytotoxicities exerted by these analogues are primarily due to initial inhibition of DNA synthesis. […] Whether these analogues, like m-AMSA, ellipticine, or anthracyclines, act by inhibiting DNA topoisomerase II remains to be explored. […] Our preliminary experiments indicate that the compounds arrest cells in the S and/or G2 phases of the cell cycle (unpublished results).

[4] = test system: DNA (native and thermally denatured); experiment: Spectrophotometric study of DNA interaction; assay type: binding, calf thymus; details: for interaction with DNA on increase of salt concentration: Na concentration increased from 0.01 to 0.1 M; for interaction with DNA: absorption spectra, native and thermally denatured DNA
Protocol: Some representative compounds were studied for their ability to interact with nucleic acids in solution by comparison of the electronic spectrum of drug alone with that of the drug in the presence of an excess of nucleic acid. All drugs studied have an absorption band in the visible region, separate from the absorption band of the nucleic acids, and therefore any changes in band intensity and position were indicative of drug chromophore-DNA interaction.
Absorption spectra were measured with an IBM 9410 UV-visible spectrometer interfaced to an HP 9826 computer. Small volumes of the stock drug solutions (2 mg/mL in Me2 SO) were added to 2 mL of buffer (0.01 or 0.1 M NaCl, 5 mM Hepes, pH 7) to obtain a final drug concentration of 5-15 μM, or to the solution of native or thermally denatured DNA (0.2 and 0.1 mM, respectively) in the buffer. After incubation at room temperature for 10 min, the spectra were recorded in the 300-600 nm range (increment 1 nm) and corrected by subtracting the spectrum of the blank which was measured before addition of the drug.

[5] = Mus musculus, L1210, Table I, read-out: ID50 (the source's name)
[6] = Mus musculus, L1210, Table I, read-out: ID50 (μg/mL)
[7] = Mus musculus, Table IV, L1210, 72 h exposure, read-out: ID50, M (L1210 cell growth)
[8] = Mus musculus, L1210, Table II, antileukemic activity, read-out: L1210: ID50

IC50 ([1]; Homo sapiens, 0.5 h) [µM]	IC50 ([2]; Homo sapiens, 0.2% DMSO) [µM]	IC50 [3, 5] [µM]	IC50 [3, 6] [µg/mL]	IC50 [3, 7] [µM]	Compound	B/A [1]	also measured
–	–	–	–	–	COc1cc(O)c2c(c1)C(=O)c1cc(CN(CCCl)CCCl)cc(O)c1C2=O [XIb-3, 3-[N,N-bis(2-chloroethyl)amino]methyl-1,8-dihydroxy-6-methoxy-9,10-anthraquinone]	19.7	IC50 [1]: 12 µM; IC50 ([2]; 0.2% DMSO): 0.61 µM; ID50 ([3]; Table I): 0.010 µg/mL (≈ 0.0236 µM); IC50 ([3]; Table I, read-out: ID50 (the source's name)): 0.023 µM; interaction with DNA on increase of salt concentration [4]: lost the ability to interact with DNA
45	6.6	13.7	5.8	14	COc1cc(O)c2c(c1)C(=O)c1cc(CN(CCO)CCO)cc(O)c1C2=O [XIb-2, 3-[N,N-bis(2-hydroxyethyl)amino]methyl-1,8-dihydroxy-6-methoxy-9,10-anthraquinone]	5.2	interaction with DNA [4]: interact with both native and thermally denatured DNA but more strongly with native DNA
14	1.8	2.8	0.99	280	CCN(CC)Cc1cc(O)c2c(c1)C(=O)c1cccc(O)c1C2=O [XIa-1, 3-[N,N-diethylamino)methyl-1,8-dihydroxy-9,10-anthraquinone]	7.8	IC50 [3, 8]: 2.75 µM; interaction with DNA [4]: interact with both native and thermally denatured DNA but more strongly with native DNA
340	25	–	–	59	COc1cc(O)c2c(c1)C(=O)c1cc(CBr)cc(O)c1C2=O [VIb, 3-bromomethyl-1,8-dihydroxy-6-methoxy-9,10-anthraquinone]	13.6	–
29	48	3.59	1.3	1.2	CCNCc1cc(OC)c2c(c1)C(=O)c1cccc(OC)c1C2=O [IXa-5, 3-(N-ethylamino)methyl-1,8-dimethoxy-9,10-anthraquinone]	0.60	–
9.3	2.7	–	–	2.2	CN(C)Cc1cc(O)c2c(c1)C(=O)c1cccc(O)c1C2=O [XIa-9]	3.3	–
14	3.3	5.9	2.33	–	O=C1c2cccc(O)c2C(=O)c2c(O)cc(CN(CCO)CCO)cc21 [XIa-2, 3-[N,N-bis(2-hydroxyethyl)amino] methyl-1,8-dihydroxy-9,10-anthraquinone]	4.2	–
12	84	–	–	0.68	COc1cc(OC)c2c(c1)C(=O)c1cc(CBr)cc(OC)c1C2=O [IIIb, 3-bromomethyl-1,6,8-trimethoxy-9,10-anthraquinone]	0.14	–
18	8.7	0.77	0.26	–	CCNCc1cc(O)c2c(c1)C(=O)c1cccc(O)c1C2=O [XIa-5, 3-[N-ethylamino)methyl-1,8-dihydroxy-9,10-anthraquinone]	2.1	–
–	–	–	–	–	3-(Bromomethyl)-1(and 8)-Hydroxy-8(and 1)-Methoxy-9,10-anthraquinone [Va]	1.7	IC50 ([2]; 0.2% DMSO): 7.1 µM; IC50 ([3]; Table IV, L1210, 72 h exposure, read-out: ID50, M (L1210 cell growth)): 8.8 µM
14	490	> 49.8	> 21	> 50	COc1cccc2c1C(=O)c1c(OC)cc(CN(CCO)CCO)cc1C2=O [IXa-2, 3-[N,N-bis(2-hydroxethyl)amino]methyl-1,8-dimethoxy-9,10-anthraquinone]	0.03	IC50 [3, 8]: > 50 µM
9.4	9.5	–	–	72	CNC(=O)OCCN(CCOC(=O)NC)Cc1cc(OC)c2c(c1)C(=O)c1cccc(OC)c1C2=O [IXa-4]	0.99	–

Compound	IC50 ([1]; Homo sapiens, 0.5 h) [µM]	IC50 ([2]; Homo sapiens, 0.2% DMSO) [µM]	IC50 [3, 5] [µM]	IC50 [3, 6] [µg/mL]	IC50 [3, 7] [µM]	B/A [1]	also measured
COc1cc(O)c2c(c1)C(=O)c1cc(CNCCCl)cc(O)c1C2=O [XIb-7, 3-[N-(2-chloroethyl)amino]methyl-1,8-dihydroxy-6-methoxy-9,10-anthraquinone]	220	–	–	–	–	23.9	IC50 ([2]; Homo sapiens): 9.2 µM; IC50 ([3]; Mus musculus, L1210, 72 h, read-out: ID50, M (L1210 cell growth)): 18 µM; reversal of DNA induced changes in absorption spectra by Me2SO ([4]; Me2 SO to 1:1 v/v): could be reversed by addition of Me2 SO; interaction with DNA on increase of salt concentration [4]: lost the ability to interact with DNA
